We go through 5 molecules from publication PMC10254170, “Diastereoselective Synthesis of the Borylated D-Galactose Monosaccharide 3-Boronic-3-Deoxy-D-Galactose and Biological Evaluation in Glycosidase Inhibition and in Cancer for Boron Neutron Capture Therapy (BNCT)” (Molecules, 2023).

As a reminder, the inhibition is the drop in the measured response relative to a control, in per cent.

The test system of one data set is U87 (glioblastoma). The experiment in a line: Cancer screening (MTT growth inhibition), U87. In kind it is cell-based. Particulars: 72 h; for inhibition at 25 µM / Percentage (%) cell growth inhibition: 25 µM of drug, n = 3, mean ± SEM; for inhibition at 25 µM: read-out: Percentage (%) cell growth inhibition. The protocol:
(§1) All test agents were prepared as stock solutions (20 mM) in dimethyl sulfoxide (DMSO) and stored at −20 °C. Cell lines used in the study included: HT29 (colorectal carcinoma), U87 and SJ-G2 (glioblastoma), MCF-7 (breast carcinoma), A2780 (ovarian carcinoma), H460 (lung carcinoma), A431 (skin carcinoma), Du145 (prostate carcinoma), BE2-C (neuroblastoma), MiaPaCa-2 (pancreatic carcinoma), SMA560 (spontaneous murine astrocytoma), and ADDP (Cis Res Ovarian), together with one non-tumor-derived normal breast cell line (MCF10A). All cell lines were incubated in a humidified atmosphere with 5 % CO2 at 37 °C. The cancer cell lines were maintained in Dulbecco’s modified Eagle’s medium (DMEM; Sigma, Australia) supplemented with fetal bovine serum (10%), sodium pyruvate (10 mM), penicillin (100 IUmL^−1), streptomycin (100 µg mL^−1), and L-glutamine (2 mM).
(§2) Growth inhibition was determined by plating cells in duplicate in medium (100 µL) at a density of 2500–4000 cells per well in 96-well plates. On day 0 (24 h after plating), when the cells are in logarithmic growth, medium (100 µL) with or without the test agent was added to each well. After 72 h of drug exposure, growth inhibitory effects were evaluated using the (3-(4,5-dimethyltiazol-2-yl)-2,5-diphenyltetrazolium bromide) (MTT) assay and absorbance read at 540 nm. The percentage growth inhibition was calculated at a fixed concentration of 25 µM, based on the difference between the optical density values on day 0 and those at the end of drug exposure. Each data point is the mean ± the standard error of the mean (SEM) calculated from three replicates, which were performed on separate occasions and in separate cell line passages.

Data set [1] concerns Du145 (prostate carcinoma). The experiment in a line: Cancer screening (MTT growth inhibition), Du145. The format is cell-based. The note with it: 72 h; for inhibition at 25 µM: DU-145, 25 µM of drug, read-out: Percentage (%) cell growth inhibition; for inhibition at 25 µM / Percentage (%) cell growth inhibition: n = 3, mean ± SEM; for Percentage (%) cell growth inhibition: 25 µM of drug. The protocol: as §1, §2

The target of data set [2] is T1, Aspergillus niger amyloglucosidase (Aspergillus niger, UniProt P69328).
T1 construct: purchased Sigma-Aldrich Co
The data set can be described thus: Glycosidase inhibition, A. niger amyloglucosidase. The format is biochemical. An excerpt:
(§3) Glycosidase modulation studies need to explore selectivity as well as potency. Our drugs and controls are therefore screened against a panel of glycosidases in methanol (Table 1) to identify the glycosidase-related disease area(s), selectivity profile, and potency of biological action for each drug. The presence of organic boron covalently bonded to the drug structure also grants a reduced toxicity profile. Following the glycosidase inhibition range recommendations, an IC50 value >250 μm denotes weak inhibition, 100–249 μm denotes moderate inhibition, 10–99 μm good inhibition, 0.1–9 μm potent inhibition, and <0.1 μm very potent inhibition. […] Our boronated D-galactose 7 represents a novel lead in glycosidase inhibition.
(§4) The glycosidases screened are the following: rice α-glucosidase, yeast α-glucosidase, Bacillus α-glucosidase, rat intestinal maltase α-glucosidase, almond β-glucosidase, bovine liver β-glucosidase, coffee beans α-galactosidase, bovine liver β-galactosidase, Jack bean α-mannosidase, snail β-mannosidase, Penicillium decumbens α-L-rhamnosidase, bovine kidney α-L-fucosidase, Eschierichia coli β-glucuronidase, bovine liver β-glucuronidase, porcine kidney trehalase, Aspergillus niger amyloglucosidase, and bovine kidney N-acetyl-β-glucosaminidase. The disease areas for each glycosidase are summarized in [1].
(§5) The enzymes α-glucosidase (from yeast), β-glucosidases (from almond and bovine liver), α-galactosidase (from coffee beans), β-galactosidase (from bovine liver), α-mannosidase (from Jack bean), β-mannosidase (from snail), α-L-rhamnosidase (from Penicillium decumbens), α-L-fucosidase (from bovine kidney), trehalase (from porcine kidney), β-glucuronidases (from E. coli and bovine liver), amyloglucosidase (from A. niger), para-nitrophenyl glycosides, and various disaccharides were purchased from Sigma-Aldrich Co.
(§6) Brush border membranes were prepared from the rat small intestine according to the method of Kessler et al. and were assayed at pH 6.8 for rat intestinal maltase using maltose. For rat intestinal maltase, porcine kidney trehalase, and A. niger amyloglucosidase activities, the reaction mixture contained 25 mM maltose and the appropriate amount of enzyme, and the incubations were performed for 10–30 min at 37 °C. The reaction was stopped by heating at 100 °C for 3 min. After centrifugation (600 g; 10 min), the resulting reaction mixture was added to the Glucose CII-test Wako (Wako Pure Chemical Ind., Osaka, Japan). The absorbance at 505 nm was measured to determine the amount of the released D-glucose. Other glycosidase activities were determined using an appropriate para-nitrophenyl glycoside as substrate at the optimum pH of each enzyme. The reaction mixture contained 2 mM of the substrate and the appropriate amount of enzyme. The reaction was stopped by the addition of 400 mM Na2CO3. The released para-nitrophenol was measured spectrometrically at 400 nm. All reactions run in methanol.

Data set [3] has as its system A2780 (ovarian carcinoma). The data set can be described thus: Cancer screening (MTT growth inhibition), A2780. The format is cell-based. The note with it: 72 h; for inhibition at 25 µM: A2780, 25 µM of drug, read-out: Percentage (%) cell growth inhibition; for inhibition at 25 µM / Percentage (%) cell growth inhibition: n = 3, mean ± SEM; for Percentage (%) cell growth inhibition: 25 µM of drug. The protocol: as §1, §2

For another data set, the target named is T2, porcine kidney trehalase (Sus scrofa, UniProt I3LIR5).
T2 construct: purchased Sigma-Aldrich Co; host or cells: porcine kidney
T2 sequence (I3LIR5 24-583): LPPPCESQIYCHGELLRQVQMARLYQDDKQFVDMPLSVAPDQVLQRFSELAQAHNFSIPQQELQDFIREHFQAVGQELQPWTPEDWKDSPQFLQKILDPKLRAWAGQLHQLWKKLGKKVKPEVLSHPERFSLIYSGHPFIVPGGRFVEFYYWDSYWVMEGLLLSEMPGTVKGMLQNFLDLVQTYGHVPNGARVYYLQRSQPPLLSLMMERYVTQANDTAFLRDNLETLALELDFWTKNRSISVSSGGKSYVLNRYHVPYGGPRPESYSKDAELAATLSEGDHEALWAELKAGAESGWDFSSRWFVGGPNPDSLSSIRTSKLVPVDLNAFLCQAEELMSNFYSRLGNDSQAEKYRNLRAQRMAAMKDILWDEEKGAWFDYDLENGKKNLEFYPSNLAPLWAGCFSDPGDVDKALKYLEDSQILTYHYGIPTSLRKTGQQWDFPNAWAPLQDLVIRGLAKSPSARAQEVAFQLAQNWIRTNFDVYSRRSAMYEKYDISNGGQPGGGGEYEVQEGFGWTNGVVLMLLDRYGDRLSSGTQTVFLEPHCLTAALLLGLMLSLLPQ
The experiment in a line: Glycosidase inhibition, porcine kidney trehalase. The format is biochemical.
Excerpt: as §3, §4, §5, §6

Another data set can be described thus: Solubility in water. In kind it is physicochemical.
Data set [4] has as its system rat intestinal maltase α-glucosidase. The data set can be described thus: Glycosidase inhibition, rat intestinal maltase. The format is biochemical. Particulars: for inhibition %: in methanol.
Excerpt: as §3, §4, §6

Data set [5] concerns all cell lines (cancer cell lines and normal cell line). The data set can be described thus: Cancer screening, all cell lines. Particulars: all cancer cell lines and the normal cell line. The format is cell-based. The protocol:
as §1, with “The cancer cell lines were maintained in Dulbecco’s modified Eagle’s medium (DMEM; Sigma, Australia) supplemented with fetal bovine serum (10%), sodium pyruvate (10 mM), penicillin (100 IUmL^−1), streptomycin (100 µg mL^−1), and L-glutamine (2 mM).” left out
as §2, with “On day 0 (24 h after plating), when the cells are in logarithmic growth, medium (100 µL) with or without the test agent was added to each well.” left out

Setting [6] is: at 100 μM, in methanol, read-out: inhibition %.
Setting [7] is: at 100 μM, read-out: NI: No inhibition.
Where [8] appears, read: at 1000 μM, in methanol, read-out: inhibition %.
[9] abbreviates: at 1000 μM, read-out: NI: No inhibition.

Like-named read-outs stand apart in the source and are kept apart here.

T1 sequence (P69328 25-640): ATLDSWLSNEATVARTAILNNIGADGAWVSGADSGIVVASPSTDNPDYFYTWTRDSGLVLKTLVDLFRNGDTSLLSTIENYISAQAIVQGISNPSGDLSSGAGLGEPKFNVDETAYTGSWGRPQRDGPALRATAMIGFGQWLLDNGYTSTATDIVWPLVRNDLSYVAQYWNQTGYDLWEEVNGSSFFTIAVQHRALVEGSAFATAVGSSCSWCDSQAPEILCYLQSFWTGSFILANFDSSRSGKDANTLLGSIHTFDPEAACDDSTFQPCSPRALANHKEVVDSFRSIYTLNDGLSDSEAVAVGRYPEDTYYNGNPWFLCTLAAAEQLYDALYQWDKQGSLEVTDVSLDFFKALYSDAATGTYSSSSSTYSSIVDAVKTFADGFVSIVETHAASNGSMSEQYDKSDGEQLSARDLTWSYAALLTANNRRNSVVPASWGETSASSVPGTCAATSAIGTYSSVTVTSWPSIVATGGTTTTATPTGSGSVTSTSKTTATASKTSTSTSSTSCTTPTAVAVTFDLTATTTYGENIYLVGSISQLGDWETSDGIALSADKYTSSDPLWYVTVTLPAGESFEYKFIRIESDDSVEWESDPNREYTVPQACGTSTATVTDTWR

Consider `CC1(C)OCC(C2OC3OC(C)(C)OC3C2[B-]23OCC[NH+]2CCO3)O1` [Compound 6, 3-Deoxy-3-Boronodiethanolamine-1,2:5,6-Di-O-isopropylidene-α-D-galactofuranose], for which the inhibition at 25 µM in the data set on U87 (glioblastoma) is 8 ± 4%; in data set [1] (Homo sapiens) it was 0%; in data set [3] (Homo sapiens) it was 10 ± 5%. Also, the inhibition at 100 µM in data set [2] (setting [6]) is 0%; in data set [2] (setting [7]), less than 50%; at porcine kidney trehalase (setting [6]), 0%; on porcine kidney trehalase (setting [7]), less than 50%. Further, the solubility in water entry in “Solubility in water” was “soluble in water”. In addition, the “NI: No inhibition” value in data set [4] (at 100 μM) is “NI (No inhibition (less than 50% inhibition at 100 μM))”. Also, in data set [4] (at 100 μM), the inhibition % is reported as 3.1%. The GI50 in data set [5] is greater than 50 µM.

For the molecule Borocaptate sodium [BSH], the entries for the “Percentage (%) cell growth inhibition” value (with U87 (glioblastoma); in data set [1]; in data set [3]) were less than 0%, 0 ± 8% and 2 ± 5%, respectively. The inhibition % in data set [2] (at 1000 μM, in methanol) is 0%; on porcine kidney trehalase (at 1000 μM, in methanol), 4.2%; in data set [4] (at 1000 μM), 0%. The “NI: No inhibition” value (on porcine kidney trehalase (at 1000 μM); in data set [4] (at 1000 μM)) was “NI (No inhibition (less than 50% inhibition at 1000 μM))” in each case.

For `OCC1OC(O)C(O)C(B(O)O)C1O` [Compound 7, 3-Boronic-3-Deoxy-D-galactose], the inhibition at 25 µM is -6 ± 3% with U87 (glioblastoma), 7 ± 4% in data set [1] (Homo sapiens) and 8 ± 3% in data set [3] (Homo sapiens). Besides, the GI50 in the data set on U87 (glioblastoma) (dose response, read-out: GI50 = Concentration that inhibits cell growth by 50%) is greater than 50 µM; in data set [1] (Homo sapiens, DU-145, dose response, read-out: GI50 = Concentration that inhibits cell growth by 50%), greater than 50 µM; in data set [3] (Homo sapiens, A2780, dose response, read-out: GI50 = Concentration that inhibits cell growth by 50%), greater than 50 µM; in data set [5] it was greater than 50 µM. Moreover, the inhibition at 1000 µM in data set [2] (setting [8]) is 1.5%; in data set [2] (setting [9]), less than 50%; on porcine kidney trehalase (setting [8]), 0.5%; at porcine kidney trehalase (setting [9]), less than 50%. Further, the solubility in water entry in “Solubility in water” was “soluble in water”. Also, in data set [4] (at 1000 μM), the “NI: No inhibition” value was “NI (No inhibition (less than 50% inhibition at 1000 μM))”. In addition, in data set [4] (at 1000 μM), the inhibition % is listed as 18.3%.

As to `N[C@@H](Cc1ccc(B(O)O)cc1)C(=O)O` [BPA, 4-borono-L-phenylalanine], the values for the inhibition at 25 µM (with U87 (glioblastoma); in data set [1] (Homo sapiens); in data set [3] (Homo sapiens)) were less than 0%, 19 ± 10% and 4 ± 1%, respectively. Moreover, the inhibition at 100 µM in data set [2] (setting [6]) was 0%; in data set [2] (setting [7]) it was less than 50%; at porcine kidney trehalase (setting [6]), 0%; at porcine kidney trehalase (setting [7]) it was less than 50%. Further, the “NI: No inhibition” value in data set [4] (at 100 μM) is “NI (No inhibition (less than 50% inhibition at 100 μM))”. This molecule came in with an inhibition % in data set [4] (at 100 μM) of 0%.

As for `N[C@@H](Cc1ccc(B(O)O)cc1)C(=O)O` [^10B-BPA], the “Percentage (%) cell growth inhibition” value in the data set with U87 (glioblastoma) is less than 0%; in data set [1], 15 ± 9%; in data set [3], 8 ± 4%. Further, the inhibition % in data set [2] (at 100 μM, in methanol) is reported as 0%; on porcine kidney trehalase (at 100 μM, in methanol) it was 0%; in data set [4] (at 100 μM), 0%. Moreover, the “NI: No inhibition” value (on porcine kidney trehalase (at 100 μM); in data set [4] (at 100 μM)) was “NI (No inhibition (less than 50% inhibition at 100 μM))” in each case.
